Test results as given in patent publication US9957299B2, “Peptidomimetic macrocycles” (AILERON THERAPEUTICS, INC., priority 2010, dated 2018).
Numbered stars: 1 amine (or outer) side, 2 acyl side, 3 side chain; on linkers, the order of the positions; unused ones are H or OH. Bridge positions count the residues as written; N and C are the ends. Square brackets hold non-standard residues; d marks the D form. Peptide text beside a SMILES is read from it. * marks the point of attachment. X2 = C[C@@](Cc1c[nH]c2cc(Cl)ccc12)(N[*:1])C(=O)[*:2]; Trp(6-Cl) = N[C@@H](Cc1c[nH]c2cc(Cl)ccc12)C(=O)O; R8 = C=CCCCCCC[C@@](C)(N)C(=O)O; S5 = C=CCCC[C@](C)(N)C(=O)O; Nle = CCCC[C@H](N)C(=O)O; X1 = COCCOCCOCCOC(=O)*; Ac3c = NC1(C(=O)O)CC1

Target: HDM2 (Homo sapiens, UniProt Q00987)
Experiment: FP Competition Blinding Assay | HDM2 IC50 (nM)
Details: not given

HDM2, sequence (Q00987 whole entry, looked up): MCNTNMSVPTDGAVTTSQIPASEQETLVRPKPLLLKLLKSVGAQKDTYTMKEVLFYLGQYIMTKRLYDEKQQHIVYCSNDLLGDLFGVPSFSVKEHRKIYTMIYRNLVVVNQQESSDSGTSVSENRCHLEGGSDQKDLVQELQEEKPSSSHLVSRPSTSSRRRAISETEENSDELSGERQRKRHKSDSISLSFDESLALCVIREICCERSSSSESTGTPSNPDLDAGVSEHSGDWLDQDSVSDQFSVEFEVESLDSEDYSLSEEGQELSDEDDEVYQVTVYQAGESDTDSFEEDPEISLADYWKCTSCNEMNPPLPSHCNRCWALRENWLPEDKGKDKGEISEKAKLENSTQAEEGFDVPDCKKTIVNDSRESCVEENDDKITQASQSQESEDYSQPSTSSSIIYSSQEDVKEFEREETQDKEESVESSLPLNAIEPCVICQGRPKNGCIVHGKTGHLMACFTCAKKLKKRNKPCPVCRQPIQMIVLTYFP

Q: With `CC(=O)N[C@@H](CC(C)C)C(=O)N[C@H](C(=O)N[C@@H](Cc1ccccc1)C(=O)N[C@]1(C)CCCCCCC=CCCC[C@@](C)(C(=O)N[C@@H](CO)C(N)=O)NC(=O)[C@H](CC(C)C)NC(=O)[C@H](CCC(N)=O)NC(=O)[C@H](C)NC(=O)[C@H](Cc2c[nH]c3ccccc23)NC(=O)[C@H](Cc2ccc(O)cc2)NC(=O)[C@H](CCC(=O)O)NC1=O)[C@@H](C)O` [SP-512, Ac- L T F $r8 E Y W A Q F $ S -NH2] (Ac-LTF[R8]EYWAQL[S5]S-NH2; staple 4-11) as the compound, how does the IC50 read?
A: 0.0162 µM

Q: With `CC(=O)N[C@@H](CC(C)C)C(=O)N[C@H](C(=O)N[C@@H](Cc1ccccc1)C(=O)N[C@]1(C)CCCCCCC=CCCC[C@@](C)(C(=O)N[C@@H](CO)C(N)=O)NC(=O)[C@H](CC(C)C)NC(=O)[C@H](CCC(N)=O)NC(=O)[C@H](CO)NC(=O)[C@H](Cc2c[nH]c3ccccc23)NC(=O)[C@H](Cc2ccc(O)cc2)NC(=O)[C@H](C)NC1=O)[C@@H](C)O` [SP-360, Ac- L T F $r8 A Y W S Q L $ S -NH2] (Ac-LTF[R8]AYWSQL[S5]S-NH2; staple 4-11) as the compound, how does the IC50 read?
A: 0.09 µM

Q: For `CC(=O)N[C@@H](CC(C)C)C(=O)N[C@H](C(=O)N[C@@H](Cc1ccccc1)C(=O)N[C@]1(C)CCCCCCC=CCCC[C@@](C)(C(=O)N[C@@H](CO)C(N)=O)NC(=O)[C@H](CC(C)C)NC(=O)[C@H](CCC(N)=O)NC(=O)[C@H](C)NC(=O)[C@H](Cc2c[nH]c3ccccc23)NC(=O)[C@H](Cc2ccc(O)cc2)NC(=O)[C@H](C(C)C)NC1=O)[C@@H](C)O` [SP-266, Ac- L T F $r8 V Y W A Q L $ S -NH2] (Ac-LTF[R8]VYWAQL[S5]S-NH2; staple 4-11), which IC50 is on record?
A: 0.066 µM

Q: For `CC(=O)N[C@@H](Cc1c[nH]c2ccccc12)C(=O)N[C@H](C(=O)N[C@@H](Cc1ccccc1)C(=O)N[C@]1(C)CCCCCCC=CCCC[C@@](C)(C(=O)N[C@@H](CO)C(N)=O)NC(=O)[C@H](CC(C)C)NC(=O)[C@H](CCC(N)=O)NC(=O)[C@H](C)NC(=O)[C@H](Cc2c[nH]c3ccccc23)NC(=O)[C@H](Cc2ccc(O)cc2)NC(=O)[C@H](Cc2c[nH]cn2)NC1=O)[C@@H](C)O` [SP-256, Ac- W T F $r8 H Y W A Q L $ S -NH2] (Ac-WTF[R8]HYWAQL[S5]S-NH2; staple 4-11), which IC50 is on record?
A: 0.185 µM

Q: With `COCCOCCOCCOC(=O)N[C@@H](CC(C)C)C(=O)N[C@H](C(=O)N[C@@H](Cc1ccccc1)C(=O)N[C@]1(C)CCCCCCC=CCCC[C@@](C)(C(=O)N[C@@H](CO)C(N)=O)NC(=O)[C@H](CC(C)C)NC(=O)[C@H](CCC(N)=O)NC(=O)[C@H](C)NC(=O)[C@H](Cc2c[nH]c3ccccc23)NC(=O)[C@H](Cc2ccc(O)cc2)NC(=O)[C@H](C)NC1=O)[C@@H](C)O` [SP-580, mdPEG3-L T F $r8 A Y W A Q L $ S -NH2] (X1-LTF[R8]AYWAQL[S5]S-NH2; staple 4-11) as the compound, how does the IC50 read?
A: 0.081 µM

Q: Which IC50 does the source give for `CC(=O)N[C@@H](CC(C)C)C(=O)N[C@H](C(=O)N[C@@H](Cc1ccccc1)C(=O)N[C@]1(C)CCCCCCC=CCCC[C@@](C)(C(=O)N[C@@H](CO)C(N)=O)NC(=O)[C@H](CC(C)C)NC(=O)[C@H](CCC(N)=O)NC(=O)[C@H](C)NC(=O)[C@H](Cc2c[nH]c3ccccc23)NC(=O)[C@H](Cc2ccc(O)cc2)NC(=O)[C@H](C)NC1=O)[C@@H](C)O` [SP-191, Ac- L T F $r8 A Y W A Q L $ S -NH2] (Ac-LTF[R8]AYWAQL[S5]S-NH2; staple 4-11) here?
A: 0.0749 µM

Target: HDMx (Homo sapiens, UniProt O15151)
Experiment: FP Competition Blinding Assay | HDMx IC50 (nM)
Details: not given

HDMx, sequence (O15151 whole entry, looked up): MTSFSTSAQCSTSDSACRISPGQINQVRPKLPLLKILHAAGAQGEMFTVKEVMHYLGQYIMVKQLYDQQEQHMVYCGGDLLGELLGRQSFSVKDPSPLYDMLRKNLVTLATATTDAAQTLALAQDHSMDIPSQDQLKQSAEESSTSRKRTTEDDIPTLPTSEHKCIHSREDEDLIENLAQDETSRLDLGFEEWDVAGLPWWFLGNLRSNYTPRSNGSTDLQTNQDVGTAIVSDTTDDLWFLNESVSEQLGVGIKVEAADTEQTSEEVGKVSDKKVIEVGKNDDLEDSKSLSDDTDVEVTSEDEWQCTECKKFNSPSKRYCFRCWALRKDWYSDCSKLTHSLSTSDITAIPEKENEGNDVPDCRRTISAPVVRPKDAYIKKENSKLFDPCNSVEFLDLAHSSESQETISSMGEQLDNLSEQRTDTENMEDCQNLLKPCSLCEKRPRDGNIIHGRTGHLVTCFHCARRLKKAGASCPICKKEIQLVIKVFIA

Q: For `COCCOCCOCCOC(=O)N[C@@H](CC(C)C)C(=O)N[C@H](C(=O)N[C@@H](Cc1ccccc1)C(=O)N[C@]1(C)CCCCCCC=CCCC[C@@](C)(C(=O)N[C@@H](CO)C(N)=O)NC(=O)[C@H](CC(C)C)NC(=O)[C@H](CCC(N)=O)NC(=O)[C@H](C)NC(=O)[C@H](Cc2c[nH]c3ccccc23)NC(=O)[C@H](Cc2ccc(O)cc2)NC(=O)[C@H](C)NC1=O)[C@@H](C)O` [SP-580, mdPEG3-L T F $r8 A Y W A Q L $ S -NH2] (X1-LTF[R8]AYWAQL[S5]S-NH2; staple 4-11), which IC50 is on record?
A: 0.195 µM

Q: With `CC(=O)N[C@@H](CC(C)C)C(=O)N[C@H](C(=O)N[C@@H](Cc1ccccc1)C(=O)N[C@]1(C)CCCCCCC=CCCC[C@@](C)(C(=O)N[C@@H](CO)C(N)=O)NC(=O)[C@H](CC(C)C)NC(=O)[C@H](CCC(N)=O)NC(=O)[C@H](C)NC(=O)[C@H](Cc2c[nH]c3ccccc23)NC(=O)[C@H](Cc2ccc(O)cc2)NC(=O)[C@H](Cc2ccccc2)NC1=O)[C@@H](C)O` [SP-267, Ac- L T F $r8 F Y W A Q L $ S -NH2] (Ac-LTF[R8]FYWAQL[S5]S-NH2; staple 4-11) as the compound, how does the IC50 read?
A: 0.318 µM

Q: For `CC(=O)N[C@@H](CC(C)C)C(=O)N[C@H](C(=O)N[C@@H](Cc1ccccc1)C(=O)N[C@]1(C)CCCCCCC=CCCC[C@@](C)(C(=O)N[C@@H](C)C(N)=O)NC(=O)[C@H](CC(C)C)NC(=O)[C@H](CCC(N)=O)NC(=O)[C@H](C)NC(=O)[C@H](Cc2c[nH]c3ccccc23)NC(=O)[C@H](Cc2ccc(O)cc2)NC(=O)[C@H](C)NC1=O)[C@@H](C)O` [SP-194, Ac- L T F $r8 A Y W A Q L $ A -NH2] (Ac-LTF[R8]AYWAQL[S5]A-NH2; staple 4-11), which IC50 is on record?
A: 0.463 µM

Q: With `CC(=O)N[C@@H](Cc1ccccc1)C(=O)N[C@]1(C)CCCCCCC=CCCC[C@@](C)(C(=O)N[C@@H](C)C(N)=O)NC(=O)[C@H](CC(C)C)NC(=O)C2(CC2)NC(=O)[C@H](CCC(=O)O)NC(=O)[C@H](Cc2c[nH]c3cc(Cl)ccc23)NC(=O)[C@H](Cc2ccc(O)cc2)NC(=O)[C@H](C)NC1=O` [SP-128, Ac- F $r8 A Y 6clW E Ac3c L $ A -NH2] (Ac-F[R8]AY[Trp(6-Cl)]E[Ac3c]L[S5]A-NH2; staple 2-9) as the compound, how does the IC50 read?
A: 0.967 µM

Q: For `CC(=O)N[C@@H](CC(C)C)C(=O)N[C@H](C(=O)N[C@@H](Cc1ccccc1)C(=O)N[C@]1(C)CCCCCCC=CCCC[C@@](C)(C(=O)N[C@@H](CO)C(N)=O)NC(=O)[C@H](CC(C)C)NC(=O)[C@H](CCC(N)=O)NC(=O)[C@H](C)NC(=O)[C@H](Cc2c[nH]c3ccccc23)NC(=O)[C@H](Cc2ccc(O)cc2)NC(=O)[C@H](C)NC1=O)[C@@H](C)O` [SP-191, Ac- L T F $r8 A Y W A Q L $ S -NH2] (Ac-LTF[R8]AYWAQL[S5]S-NH2; staple 4-11), which IC50 is on record?
A: 0.097 µM

System: not listed separately
Experiment: circular dichroism
Details: aqueous, '0% TFE' (buffer not stated; general: 50 mM potassium phosphate pH 7 or water); pH ns; ns °C; 25-50 uM (general text)

Q: With `CCCC[C@H](NC(C)=O)C(=O)N1CCC[C@H]1C(=O)N[C@@H](CCCNC(=N)N)C(=O)N[C@@H](Cc1ccccc1)C(=O)N[C@]1(C)CCCCCCC=CCCC[C@@](C)(C(N)=O)NC(=O)[C@H](CC(C)C)NC(=O)[C@H](CC(C)C)NC(=O)[C@H](CCCNC(=N)N)NC(=O)[C@H](Cc2c[nH]c3ccccc23)NC(=O)[C@H](Cc2ccc(O)cc2)NC(=O)[C@H](CC(N)=O)NC1=O` (Ac-[Nle]PRF[R8]NYWRLL[S5]-NH2; staple 5-12) as the compound, how does the helicity read?
A: 54.4%

Q: For `CC(=O)N[C@@H](CCC(N)=O)C(=O)N[C@@H](CO)C(=O)N[C@@H](CCC(N)=O)C(=O)N[C@@H](CCC(N)=O)C(=O)N[C@H](C(=O)N[C@@H](Cc1ccccc1)C(=O)N[C@]1(C)CCCCCCC=CCCC[C@@](C)(C(=O)N[C@@H](CCC(N)=O)C(=O)N[C@@H](CC(N)=O)C(N)=O)NC(=O)[C@H](CC(C)C)NC(=O)[C@H](CC(C)C)NC(=O)[C@H](CCCNC(=N)N)NC(=O)[C@](C)(Cc2c[nH]c3cc(Cl)ccc23)NC(=O)[C@H](CC(C)C)NC(=O)[C@H](CC(N)=O)NC1=O)[C@@H](C)O` (Ac-QSQQTF[R8]NL[X2]RLL[S5]QN-NH2; staple 7-14), which helicity is on record?
A: 60.9%

Q: With `CC(=O)N[C@@H](CCC(N)=O)C(=O)N[C@H](C(=O)N[C@@H](Cc1ccccc1)C(=O)N[C@]1(C)CCCCCCC=CCCC[C@@](C)(C(=O)N[C@@H](CO)C(N)=O)NC(=O)[C@H](CC(C)C)NC(=O)[C@H](CCC(N)=O)NC(=O)[C@H](CO)NC(=O)[C@H](Cc2c[nH]c3ccccc23)NC(=O)[C@H](Cc2c[nH]c3ccccc23)NC(=O)[C@H](Cc2c[nH]cn2)NC1=O)[C@@H](C)O` (Ac-QTF[R8]HWWSQL[S5]S-NH2; staple 4-11) as the compound, how does the helicity read?
A: 21.6%

Q: Which helicity does the source give for `CC(=O)N[C@H](C(=O)N[C@@H](CO)C(=O)N[C@@H](Cc1ccccc1)C(=O)N[C@]1(C)CCCCCCCCCCC[C@@](C)(C(=O)N2CCC[C@H]2C(N)=O)NC(=O)[C@H](CC(C)C)NC(=O)[C@H](CC(C)C)NC(=O)[C@H](CC(N)=O)NC(=O)[C@H](Cc2c[nH]c3ccccc23)NC(=O)[C@H](Cc2ccc(O)cc2)NC(=O)[C@H](CCC(N)=O)NC1=O)[C@@H](C)O` here?
A: 2.6%

Q: For `CC(=O)N[C@@H](CCC(N)=O)C(=O)N[C@@H](CO)C(=O)N[C@]1(C)CCCC=CCCCC2(CCCC=CCCC[C@@](C)(C(=O)N[C@@H](CC(C)C)C(=O)N[C@@H](CC(C)C)C(=O)NC(C)(C)C(=O)N[C@@H](CCC(N)=O)C(=O)N[C@@H](CC(N)=O)C(N)=O)NC(=O)[C@H](Cc3c[nH]c4ccccc34)NC(=O)[C@H](CC(C)C)NC(=O)[C@H](CC(N)=O)NC2=O)NC(=O)[C@H](Cc2ccccc2)NC(=O)[C@H]([C@@H](C)O)NC(=O)[C@H](CCC(N)=O)NC1=O` (some centres unmarked), which helicity is on record?
A: 0%

Q: For `CC(=O)N[C@@H](CCC(N)=O)C(=O)N[C@@H](CO)C(=O)N[C@@H](CCC(N)=O)C(=O)N[C@@H](CCC(N)=O)C(=O)N[C@H](C(=O)N[C@@H](Cc1ccccc1)C(=O)N[C@]1(C)CCCCCCCCCCC[C@@](C)(C(=O)N[C@@H](CCC(N)=O)C(=O)N[C@@H](CC(N)=O)C(N)=O)NC(=O)[C@H](CC(C)C)NC(=O)[C@H](CC(C)C)NC(=O)[C@H](CCCNC(=N)N)NC(=O)[C@](C)(Cc2c[nH]c3cc(Cl)ccc23)NC(=O)[C@H](CC(C)C)NC(=O)[C@H](CC(N)=O)NC1=O)[C@@H](C)O`, which helicity is on record?
A: 62.4%
